# US20050019314A1, “Method and compositions for treating respiratory pathologies” (priority 2001, published 2005)
# Marks after values point to notes of the source that are not given here.
# Legend:
# Assay type in all cases: in vivo, rat
# male Wistar rats [1] = assay: Pulmonary paracellular permeability to 125I-labelled human serum albumin after intratracheal Pseudomonas aeruginosa LPS
# Procedure: For this experiment, three groups of 6 male Wistar rats (200-225 g) were pretreated either with ML-7 by the IP route (3 mg/kg then 1 mg/kg 3 times a day for 48 h) or the vehicle (ethanol 10%). One hour after the next-to-last administration of ML-7, under urethane anesthesia ([…] IP), a slow intratracheal infusion of 150 μl of an iso-osmolar solution (5% bovine albumin+PBS) containing the tracer and containing (2 groups) or not containing (control group) LPS (1 μg/rat) was given.
# male Wistar rats [2] = assay: Immune cell accumulation in bronchoalveolar lavage fluid induced by intratracheal infusion of Pseudomonas aeruginosa LPS
# Procedure: For this experiment, three groups of 7 male Wistar rats (200-225 g) were used. Animals were pretreated with either ML-7 by the IP route (3 mg/kg then 1 mg/kg, 3 times a day for 48 h) or with the vehicle (ethanol 10%). One hour after the next-to-last ML-7 administration, under urethane anesthesia ([…]), a slow intratracheal infusion of 150 μl of an iso-osmolar solution (5% bovine albumin+PBS) containing (2 groups) or not containing (control group) LPS (1 μg/rat) was given. Four hours after the intratracheal infusion, bronchoalveolar lavage was performed.
# male Wistar rats [3] = assay: Immune cell accumulation in bronchoalveolar lavage fluid induced by intratracheal instillation of taurocholate (ML-7)
# Procedure: For this experiment, three groups of 8 male Wistar rats (250-300 g) were given either ML-7 by the IP route at a dose of 1 mg/kg/12 h for 36 hours, or the vehicle alone. […] At time t=2 h after the intratracheal instillation, animals were anesthetized for bronchoalveolar lavage, then sacrificed.
# male Wistar rats [4] = assay: Immune cell accumulation in bronchoalveolar lavage fluid induced by intratracheal infusion of taurocholate (PD-98059)
# Procedure: For this experiment, three groups of 8 male Wistar rats (250-300 g) were given either PD-98059 by the IP route (1 mg/kg/12 h, 36 h) or the vehicle alone (DMSO).
# male Wistar rats [5] = assay: Immune cell accumulation in bronchoalveolar lavage fluid induced by intranasal instillation of SLIGRL in rats
# Procedure: At time t=10 days, the four groups of animals were given a slow intranasal instillation of 200 μl of physiologic serum containing (groups 2 and 4) or not containing (groups 1 and 3) 0.2 mg of SLIGRL.
# At time t=3 h after intranasal instillation, animals were anesthetized for bronchoalveolar lavage, then sacrificed.
# [6] = ML-7 (3 mg/kg then 1 mg/kg 3 times a day for 48 h IP) + LPS, BAL 4 h, mean ± SEM
# [7] = ML-7 1 mg/kg/12 h, 36 h IP + taurocholate intratracheal, BAL 2 h, mean ± SD
# [8] = PD-98059 1 mg/kg/12 h, 36 h IP + taurocholate, BAL 2 h, mean ± SEM
# [9] = Taurine 10% in drinking water 10 days + 0.9% NaCl IN, BAL 3 h
# [10] = Taurine 10% in drinking water 10 days + PAR 2 (SLIGRL) IN, BAL 3 h
# [11] = PAR 2 (SLIGRL) 0.2 mg/kg IN alone, no taurine, BAL 3 h after instillation
molecule,measurement,setting,value
"O=S(=O)(c1cccc2c(I)cccc12)N1CCCNCC1 [ML-7, 1-(5-iodonaphtalène-1-sulfonyl)-1H-hexahydro-1,4-diazepine]","effect on vascular endothelial cells (endothelium permeability, tone, pulmonary circulating hemodynamics)","male Wistar rats [1]; ML-7 IP + LPS, concluded from unchanged plasma radioactivity",does not present effect
same,LPS-induced increase in pulmonary permeability,male Wistar rats [1]; ML-7 pretreatment IP (3 mg/kg then 1 mg/kg 3 times a day for 48 h) + LPS,inhibited
same,Leucocytes in BAL,male Wistar rats [2]; [6],17243 ± 2956 cells/mm^3 BAL
same,Lymphocytes in BAL,male Wistar rats [2]; [6],902 ± 375 cells/mm^3 BAL
same,Macrophages in BAL,male Wistar rats [2]; [6],10708 ± 1713 cells/mm^3 BAL
same,Neutrophils in BAL,male Wistar rats [2]; [6],6587 ± 1749 cells/mm^3 BAL
same,LPS-induced increase in the number of neutrophils in BAL (in words),male Wistar rats [2]; ML-7 pretreatment IP + LPS,reduced
same,Leucocytes in BAL,male Wistar rats [3]; [7],4160 ± 573
same,Lymphocytes in BAL,male Wistar rats [3]; [7],101 ± 44
same,Macrophages in BAL,male Wistar rats [3]; [7],3585 ± 398
same,Neutrophils in BAL,male Wistar rats [3]; [7],473 ± 216
same,intra-alveolar accumulation of immune cells (in words),male Wistar rats [3]; ML-7 IP + intratracheal taurocholate,significantly reduces
"COc1cccc(-c2cc(=O)c3ccccc3o2)c1N [PD-98059, 2-(amino-3-methoxyphenyl)-4H-1-benzopyran-4-one]",Eosinophils in BAL,male Wistar rats [4]; [8],27 ± 27 cells/mm^3 BAL
same,Leucocytes in BAL,male Wistar rats [4]; [8],21424 ± 3164 cells/mm^3 BAL
same,Lymphocytes in BAL,male Wistar rats [4]; [8],774 ± 183 cells/mm^3 BAL
same,Macrophages in BAL,male Wistar rats [4]; [8],17956 ± 2465 cells/mm^3 BAL
same,Neutrophils in BAL,male Wistar rats [4]; [8],2652 ± 600 cells/mm^3 BAL
same,intra-alveolar accumulation of immune cells (in words),male Wistar rats [4]; PD-98059 IP + intratracheal taurocholate,reduces
"NCCS(=O)(=O)O [Taurine, taurine]",Eosinophils in BAL,male Wistar rats [5]; [9],17 ± 1 mm^3
same,Lymphocytes in BAL,male Wistar rats [5]; [9],22 ± 8 mm^3
same,Macrophages in BAL,male Wistar rats [5]; [9],1651 ± 72 mm^3
same,Neutrophils in BAL,male Wistar rats [5]; [9],34 ± 3 mm^3
same,Tot. Leucocytes in BAL,male Wistar rats [5]; [9],1728 ± 111 mm^3
same,Eosinophils in BAL,male Wistar rats [5]; [10],17 ± 1* mm^3
same,Lymphocytes in BAL,male Wistar rats [5]; [10],22 ± 8* mm^3
same,Macrophages in BAL,male Wistar rats [5]; [10],1967 ± 103* mm^3
same,Neutrophils in BAL,male Wistar rats [5]; [10],34 ± 3* mm^3
same,Tot. Leucocytes in BAL,male Wistar rats [5]; [10],2086 ± 134* mm^3
same,SLIGRL-induced accumulation of eosinophils and neutrophils in BAL (in words),"male Wistar rats [5]; animals treated with taurine, t = 3 h",not in animals treated with taurine
SLIGRL [PAR 2],Eosinophils in BAL,male Wistar rats [5]; [11],32 ± 2^+ mm^3
same,Lymphocytes in BAL,male Wistar rats [5]; [11],297 ± 28 mm^3
same,Macrophages in BAL,male Wistar rats [5]; [11],5559 ± 63^+ mm^3
same,Neutrophils in BAL,male Wistar rats [5]; [11],656 ± 41^+ mm^3
same,Tot. Leucocytes in BAL,male Wistar rats [5]; [11],6464 ± 99^+ mm^3
same,eosinophils and neutrophils in bronchoalveolar lavage fluid (in words),"male Wistar rats [5]; intranasal SLIGRL, control animals (no taurine), t = 3 h",results in accumulation
